Measured values published in US20170304815A1, “Antimicrobial And Biological Active Polymer Composites And Related Methods, Materials and Devices” (IASIS MOLECULAR SCIENCES, priority 2014, published 2017).

How the values were obtained:
[1] = unbound molecule; cited from earlier work
[2] = Thermogravimetric analysis, thermal stability; format: physicochemical; conditions: simple salt
Experimental: Amberlite IRP69 strong cation-exchange material was stirred in a minimal amount of deionized water and an excess (˜10-500 molar excess) silver nitrate was added and the mixture stirred by the addition of a mechanical stirrer for 60 minutes. […] The modified IRP69 was dried under vacuum at 130° C. and the material was milled with an IKA homogenizer and the resulting particles were put through a sieve with a 35 μm cutoff. The powder was dried under vacuum and used for incorporation within various polymer composite mixtures.
Thermal stability of a benzalkonium salt of IRP69 (IRP69-benzalkonium) was measured and compared to thermal stability of benzalkonium chloride (simple salt). […] (close to the optimal processing temperature polyethylene terephthalate), unexpectedly providing for stable incorporation of the subject biologically active materials within composites useful to create fibers, threads, woven textiles and fabrics incorporating these thermally demanding materials.

Row | Molecule | susceptible to thermal degradation to p-chloroaniline above [1] | begins to decompose at (thermogravimetric profile) [2]
1 | [H]/N=C(\N/C(=N/[H])NCCCCCCNC(=N)NC(=N)Nc1ccc(Cl)cc1)Nc1ccc(Cl)cc1 [Chlorhexidine] | above 70 °C | –
2 | benzalkonium chloride | – | about 200 °C
